In patent US9856225B2, “Substituted phenazines as antimicrobial agents” (University of Florida Research Foundation, Incorporated, priority 2013, dated 2018):
Converted amounts (≈) assume the structure as drawn. “And” between values parts separate entries of the source, which are not always exact repeats. Identical values can stand only once. Marks after values point to notes of the source that are not given here.

Key:
MRSA-2 biofilms [1] = experiment: Biofilm eradication assay (MBEC); type: cell-based, Staphylococcus aureus; settings: for Biofilm Eradication MBEC: MRSA-2
Procedure: Biofilm eradication assays. […] The protocol for the biofilm eradication assays was essentially the same as the protocols reported in Eun et al., J. Am. Chem. Soc., 2012, 134, 11322 and Ceri et al., J. Clin. Microbiol., 1999, 37, 1771. Biofilm eradication assays were essentially biofilm dispersion assays with the addition of a final treatment with fresh media (and incubation at 37° C. for 24 hours) instead of crystal violet staining. This final incubation allowed viable cells within the biofilm to grow. At the end of this final incubation in biofilm eradication assays, microtiter wells void of turbidity represented eradicated biofilms, and the lowest concentration at which no visible growth was observed was referred to as the minimum biofilm eradication concentration (MBEC). Potent biofilm eradicating small molecules are extremely rare (Fletcher et al., Tetrahedron, 2014, 70, 6373; Jennings et al., ChemBioChem, 2014, 15, 2211). For these experiments, MRSA-2 was selected as the model since MRSA-2 is a multidrug-resistant, biofilm-forming clinical isolate of Staphylococcus aureus (Priyaja et al., Cytotechnol., 2014, doi: 10.1007/s10616-014-9765-5).

MRSA-2 biofilms [2] = experiment: MRSA-2 biofilm dispersion assay; type: cell-based; settings: Staphylococcus aureus, 24 h, read-out: MRSA-2 biofilm dispersion EC50
[3] = system: Staphylococcus epidermidis (ATCC 12228); experiment: MIC broth microdilution (CLSI), Luria Broth; type: cell-based; settings: for MIC: ATCC12228, Table 1, ATCC 12228, read-out: Staphylococcus epidermidis MIC; for fold more potent than compound 1: from MIC
In short: (§1)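 Two-fold serial dilutions (0.10–100 μM, eleven points) in Luria Broth, each well inoculated with 10^5 cells from log-phase culture (OD600 0.5), per CLSI broth microdilution. DMSO vehicle up to 1% v/v as negative control; kanamycin positive control for the staphylococci.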

[4] = system: Pseudomonas aeruginosa (PAO1); experiment: MIC broth microdilution (CLSI), Luria Broth; type: cell-based; settings: Table 1, PAO1, read-out: Pseudomonas aeruginosa MIC
In short: as §1

MRSA-2 = experiment: MIC against MRSA-2; type: cell-based; settings: Staphylococcus aureus, read-out: MIC against MRSA-2
Procedure: Antibiotic Susceptibility Tests (MIC Assay Protocol). The minimum inhibitory concentration (MIC) for each compound described herein was determined by the broth microdilution method as recommended by the Clinical and Laboratory Standards Institute (CLSI) (Clinical and Laboratory Standards Institute. 2009. Methods for dilution antimicrobial susceptibility tests for bacteria that grow aerobically; approved standard, eighth edition (M7-A8)). In a 96-well plate, eleven two-fold serial dilutions of each compound were made in a final volume of 100 μL Luria Broth (one column served as a blank; see the MIC assay described herein). Each well was inoculated with 10^5 bacterial cells at the initial time of incubation, prepared from a fresh log phase culture (OD600 of 0.5). […] The concentration range tested for each compound during this study was 0.10 to 100 μM. DMSO served as the vehicle and negative control in each microdilution MIC assay. DMSO was serially diluted at the same concentration as the compounds with a top concentration of 1% v/v. Bacterial strains used: Staphylococcus aureus (ATCC 25923), Staphylococcus epidermidis (ATCC 12228) and Pseudomonas aeruginosa (PAO1). […]
Vancomycin's activity against MRSA-2. Vancomycin was also evaluated against MRSA-2 since vancomycin has been considered to be the drug of last resort against MRSA infections.

[5] = Hydrolysis stability in sterile water; type: physicochemical; settings: 24 hours at 37° C., static, TLC and NMR
Procedure: Compound storage. Solid stocks of the compounds described herein were stored at −80° C. in vials sealed with PARAFILM. Between 2.0 and 4.5 milligrams of each compound was weighed out, and a 10 mM DMSO stock solution of each compound were prepared. DMSO stock solutions were stored at room temperature in the dark (e.g., wrapped in aluminum foil). At this concentration, a few compounds required gentle heating to completely solubilize. DMSO stock solutions were not subjected to any freeze-thaw cycles to prevent compound breakdown. The compounds were stable in DMSO for several weeks under these mild storage conditions, with the exception of pyocyanin. Pyocyanin is unstable in DMSO at room temperature after one day. […] DMSO stock solutions of about 2 milligrams of pyocyanin were made fresh each day. The hydrolysis stability of select compounds was also tested, e.g., by subjecting these compounds to conditions mimicking the biofilm assays described herein. In one set of exemplary experiments, 3.2 to 4.5 mgs of each of compounds 18a, 12a, 23a, and 21 were treated with 1 mL of sterile water to form a mixture. Each of the mixtures was allowed to be incubated for 24 hours at 37° C. under static conditions analogous to the S. aureus biofilm inhibition assays described herein. After 24 hours, each of the mixtures was extracted with dichloromethane and evaluated, using TLC and NMR, for hydrolysis of each of compounds 18a, 12a, 23a, and 21 to compound 11.

With `CCC(=O)Oc1c(Br)cc(Br)c2nc3ccccc3nc12` [Compound 4a] the “Biofilm Eradication MBEC” value (MRSA-2 biofilms [1]) was 125 µM.
With `Oc1c(Br)cc(Br)c2nc3ccccc3nc12` [Compound 11, 2,4-Dibromophenazin-1-ol] the EC50 (MRSA-2 biofilms [2]) was 3.53 µM, the MIC [3] was 0.78 µM to 1.56 µM and 0.28 µg/mL to 0.55 µg/mL and the “fold more potent than compound 1” value [3] was 32 fold. For the same compound, the MIC [4] was greater than 100 µM, the “Biofilm Eradication MBEC” value (MRSA-2 biofilms [1]) was 100-200^c μM and the “MBEC:MIC ratio” value (MRSA-2 biofilms [1]; MRSA-2 biofilm vs planktonic) was 64-128. It also gave an MIC (MRSA-2) of 1.56 µM (≈ 0.552 µg/mL).
In the case of `O=C(Oc1c(Br)cc(Br)c2nc3ccccc3nc12)c1ccc(Br)cc1` [Compound 12a], the “stability to hydrolysis (to compound 11)” value [5] is reported as “stable to hydrolysis”.
For `Cc1ccc(C(=O)Oc2c(Br)cc(Br)c3nc4ccccc4nc23)cc1` [Compound 18a], the “stability to hydrolysis (to compound 11)” value [5] was “stable to hydrolysis”.
In the case of `CC(=O)Oc1c(Br)cc(Br)c2nc3ccccc3nc12` [Compound 21, 2,4-Dibromophenazin-1-yl acetate], the MIC [3] is reported as 0.78 µM and 0.31 µg/mL, the “fold more potent than compound 1” value [3] is reported as 64 fold and the “stability to hydrolysis (to compound 11)” value [5] is reported as “stable to hydrolysis”.
With `O=C(Oc1c(Br)cc(Br)c2nc3ccccc3nc12)c1ccccc1` [Compound 23, 2,4-Dibromophenazin-1-yl benzoate] the MIC [3] was 1.56 µM and 0.72 µg/mL.
In the case of `O=C(Oc1c(Br)cc(Br)c2nc3ccccc3nc12)c1ccco1` [Compound 23a], the “Biofilm Eradication MBEC” value (MRSA-2 biofilms [1]) is reported as 62.5 to 100 µM and the “stability to hydrolysis (to compound 11)” value [5] is reported as “stable to hydrolysis”.
For `O=C(OCC(Cl)(Cl)Cl)Oc1c(Br)cc(Br)c2nc3ccccc3nc12` [Compound 27a], the “Biofilm Eradication MBEC” value (MRSA-2 biofilms [1]) was 125 µM.
